Like-named read-outs stand apart in the source and are kept apart here.

In one series the target is T1, Rac1 (Homo sapiens, UniProt P63000).
T1 construct: His (N)
Nature of the series: Rac Activation AlphaScreen Assay (Rac1 AS). The series is classed as biochemical. The protocol: The IC50 values reported in Tables 1-6 were obtained from the Rae Activation AlphaScreen Assay (Rac1 AS) assay described in subsection 2 under the section entitled “In Vitro Assays”. “†” represents an IC50 of greater than 100 uM; “††” represents an IC50 of greater than 10 uM and less than 50 uM; and “†††” represents an IC50 of less than 10 uM. “POC” means percent of control. […] Lower POC values reflect greater inhibition. “NT” means not tested.
2. Rac Activation AlphaScreen Assay (Rac1 AS)
AlphaScreen® assays were performed in 96-well microplates in a final reaction volume of 60 μL. Recombinant His-Rac1, recombinant GST-PBD (PAK Binding Domain), donor and acceptor beads (PerkinElmer), and inhibitors were incubated in exchange buffer (20 mM Tris pH 7.5, 50 mM NaCl, 1 mM MgCl2, 1 mM EDTA, 500 nM GTPyS (guanosine 5′-[Y-thio]triphosphate)) at 37° C. Readings were performed on a Tecan M1000 pro microplate reader after 1 hour. Data was analyzed using the GraphPad Prism software (GraphPad Software, Inc.), and IC50 (dose leading to 50% disruption of complex) was calculated from the dose-response curves.

Series [1] concerns the target T2, Rac-GEF Tiam-1 with Rac1 (G15A) (Homo sapiens, UniProt P63000, G15A).
T2 construct: host or cells: MDA-MB-435
The conditions noted are these: MDA-MB-435 cells; similar concentrations (<5 mM); cited from earlier work.

The conditions of series [2]: oral administration in mice; cited from earlier work.
Series [3] addresses T3, Rac-GEF Vav2 with nucleotide-free Rac1 (G15A) (Homo sapiens, UniProt P63000, G15A).
T3 construct: host or cells: MDA-MB-435
The following applies: MDA-MB-435 breast cancer cells; <5 mM; cited from earlier work.

For the next series, the target named is T4, Rac (Homo sapiens, UniProt P63000).
T4 construct: host or cells: fibroblasts
The following applies: relative to NSC23766; cited from earlier work.

For series [4] the following is noted: in vivo, cited from earlier work.
For series [5], the system named is animal models of estrogen positive and HER2 positive breast cancer, prostate cancer, melanoma and colorectal cancer. The conditions noted are these: single agent and in combination with standard of care; cited from earlier work.

Take `Cc1ccc(-c2nnc3ccc(-c4cccc(NC(=O)c5cccc(SC(C)(C)C)c5)c4)nn23)o1` [Compound 111]: the IC50 at Rac1 (Rac1 AS assay, dose leading to 50% disruption of complex, read-out: IC50) is below 10 µM.
As for `CCn1c2ccccc2c2cc(Nc3ccnc(NCCCN4CCOCC4)n3)ccc21` [EHop-016], the “association of the Rac-GEF Tiam-1 with Rac1 (G15A)” value in series [1] was “does not affect”. The systemic exposure entry in series [2] is given as “low systemic exposure”. For the same compound, the “association of the Rac-GEF Vav2 with nucleotide-free Rac1 (G15A)” value in series [3] is “inhibits”. Moreover, the “more efficient than NSC23766 as an inhibitor of Rac activity” value on Rac is on record as 100 fold. In addition, the IC50 at Rac1 (AlphaLisa assay, read-out: IC50 inhibitory concentration versus wild type Rac1) was around 10 µM.
Consider `FC(F)(F)c1ccc2c(SCCCCCCn3cnc(CN4CCOCC4)c3)ccnc2c1` [GYS32661], for which the oral bioavailability result in series [4] (po) is “not orally bioavailable”. Moreover, the plasma half-life result in series [4] is given as “relatively short”. Moreover, the “activity against animal models of cancer” value in series [5] is given as “very good activity”.

Source of the values: patent US20250235453A1, “TRIAZOLOPYRIDAZINE COMPOUNDS USEFUL AS RAC1 INHIBITORS” (Revere Pharmaceuticals, priority 2021, published 2025).
